The text below walks through data of the SangsterLogP compilation.

Structures are written as SMILES.

A short description of this data set: method code SF-AS, from PMID: 7324974. Particulars: pH 5.0.
What is called logD is the decadic logarithm of the distribution of all forms, ionised or not, between an organic phase and buffer at a given pH. Higher therefore signals a more lipophilic compound. On to `CCOC(=O)c1cnc2cc(C)ccn2c1=O`, for which the log distribution coefficient (logD) stood at 0.87.

On to `CCOC(=O)c1cnc2cccc(C)n2c1=O`, for which the logD amounted to 0.96.

Compound `CCOC(=O)c1cnc2n(c1=O)CCCC2` gave a logD of 0.15.

Compound `CCN1C=C(C(N)=O)C(=O)N2C(C)CCCC12` (centres undefined) registered a logD of 0.6.

`CCOC(=O)c1cnc2n(c1=O)C(C)CCC2` (centres undefined): the log distribution coefficient (logD) worked out at 0.62.

`CC1CCCC2NC=C(C(N)=O)C(=O)N12` (centres undefined) displayed a log distribution coefficient (logD) of 0.51.

`CCOC(=O)c1cnc2ccc(C)cn2c1=O` came in with a logD of 0.9.

`COC(=O)c1cnc2n(c1=O)C(C)CCC2` (centres undefined) showed a pH-dependent lipophilicity (logD) of 0.16.

`CCOC(=O)C1=CNC2CCCC(C)N2C1=O` (centres undefined) yielded a pH-dependent lipophilicity (logD) of 0.79.

In turn, `COC(=O)c1cnc2n(c1=O)C(C(C)C)CCC2` (centres undefined) gave a pH-dependent lipophilicity (logD) of 0.99.

With `CCc1nc2cccc(C)n2c(=O)c1C`, the log distribution coefficient (logD) was 1.87.

In the case of `COC(=O)c1cnc2n(c1=O)CCCC2`, the pH-dependent lipophilicity (logD) is -0.25.

As to `Cc1cnc2ccccn2c1=O`, the logD was 0.77.

Compound `CCCCC1CCCc2ncc(C(=O)OC)c(=O)n21` (centres undefined) registered a log distribution coefficient (logD) of 1.77.

For the compound `CCc1cccc2nc(C)cc(=O)n12`, the pH-dependent lipophilicity (logD) is 1.63.

In the case of `CCOC(=O)c1cnc2c(C)cccn2c1=O`, the pH-dependent lipophilicity (logD) is 1.16.

The compound `CCCC1CCCc2ncc(C(=O)OC)c(=O)n21` (centres undefined) yielded a logD of 1.14.

The compound `Cc1cccc2ncc(-c3ccccc3)c(=O)n12` displayed a pH-dependent lipophilicity (logD) of 2.59.

Compound `CC1CCCC2N(C)C=C(C(N)=O)C(=O)N12` (centres undefined) displayed a logD of 0.22.

`CCc1cc(=O)n2c(C)cccc2n1` showed a pH-dependent lipophilicity (logD) of 1.59.

As to `CCOC(=O)c1cnc2n(c1=O)CCC(C)C2` (centres undefined), the logD was 0.66.

On to `CCOC(=O)C1=CNC2CCCCN2C1=O` (centres undefined), for which the log distribution coefficient (logD) came to 0.57.

With `CCOC(=O)c1cnc2ccccn2c1=O`, the log distribution coefficient (logD) came to 0.25.

Regarding `CC1CCC=C2N(C)C=C(C(N)=O)C(=O)N21` (centres undefined), the logD stood at 0.12.

`CCCc1nc2cccc(C)n2c(=O)c1CC` displayed a pH-dependent lipophilicity (logD) of 2.37.

Regarding `CC1CCCc2ncc(C(N)=O)c(=O)n21` (centres undefined), the log distribution coefficient (logD) came to 0.04.

The compound `CCOC(=O)C1=CN(C)C2CCCC(C)N2C1=O` (centres undefined) registered a logD of 0.45.

For `CCOC(=O)c1cnc2n(c1=O)CC(C)CC2` (centres undefined), the logD worked out at 0.71.

Compound `Cc1cc(=O)n2c(C)cccc2n1` came in with a logD of 1.05.
